Test results: article PMC11423305, “Structure-Based Design of CBP/EP300 Degraders: When Cooperativity Overcomes Affinity” (JACS Au, 2024)
Entries after “also recorded” stand apart in the source; their conditions may differ.

What was measured:
LNCaP cells = test: Cell viability (resazurin), LNCaP; assay type: cell-based; conditions: 3 day treatment
Description: normalized to DMSO treated lanes on the same membrane. (Several compounds were
measured at the same time, so DMSO treated lanes are replicated here between
Figure S5. Anti-proliferation in additional cell lines. LNCaP (A and C) and SH-SY5Y (B)
cell viability following 3 day compound treatment, and LNCaP following 6 day treatment
(D), determined using resazurin.
After 3 days of treatment, dCE-2 only has a mild effect on the proliferation of LNCaP and
SH-SY5Y cells (Figure S5A and B).
the new CBP/EP300 PROTACs CBPD -268 and CBPD-4092,3 which have enhanced anti-
proliferative activity in LNcaP cells relative to their parent inhibitor s. However, although
these PROTACs have effects at very low concentrations, their effect plateaus and a
substantial proportion of cells remain viable at high compound concentrations. Similarly,
degradation of CBP and EP300, the maximal effect of this PROTAC is also limited under
the conditions we used (Figure S5C). Through this work it was clear to us that these […]
proliferation. […]
concentrations of CRBN, as determined through competition with acetylated peptide […]
Fluorescence (excitation = 560 nm, emission = 590 nm) was measured using a
spectraMax M5 microplate reader (Molecular Devices) and cell viability was calculated […]
values were calculated as the concentration required to inhibit cell viability to 50 % […]

CBP-BRD = CBP-BRD (Homo sapiens, UniProt Q92793); test: BROMOscan ligand binding site-directed competition assay, CBP; design: T7 phage display fusion with DNA tag for qPCR; purchased Eurofins Discovery (BROMOscan service); host or cells: E. coli infected with T7 phage
Description: 2. Methods and General Procedures […]
KD values were determined using BROMOscan™ technology, carried out by Eurofins […]
Discovery according to their standard protocol. Briefly E. coli were infected with T7 phage […]
strains displaying bromodomains and bromodomain protein was subsequently purified […]
through lysis, centrifugation and filtration. Affinity resins were generated by incubation of […]
streptavidin-coated magnetic beads with biotinylated small molecules or acetylated […]
peptide ligands. Binding reactions were assembled by combining the bromodomains and […]
liganded affinity beads in binding buffer (17 % SeaBlock, 0.33x PBS, 0.04 % Tween 20, […]
0.02 % BSA, 0.004 % sodium azide and 7.4 mM DTT) with compounds (11-point, 3-fold […]
dilution series) added to give a final DMSO concentration of 0.09 %. Assay plates were […]
incubated for 1 h, prior to washing and elution of beads. The bromodomain concentration […]
in the eluates was measured by qPCR of the DNA tag on the bromodomain.
KD values were calculated with a standard dose-response curve fitted using the Hill […]
Response = Background + Signal − Background […]
The Hill Slope was set to -1 and curves fitted using a non-linear least square fit with the Levenberg-Marquardt algorithm.
Ligand efficiency (LE) was calculated as follows: LE = 1.4(pIC50)/N

Sequence of CBP-BRD (Q92793 1085-1192 limits assumed): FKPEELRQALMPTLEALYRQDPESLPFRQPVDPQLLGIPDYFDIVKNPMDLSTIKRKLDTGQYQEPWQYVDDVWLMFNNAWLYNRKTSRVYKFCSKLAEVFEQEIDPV

Kd (CBP-BRD; BROMOscan): 1300 nM
loss of potency compared to parent compound 3, CBP (CBP-BRD; BROMOscan KD ratio): > 40 fold
Compound: Cc1cc2c(NC(=O)c3cc(NC(=O)CCCCCCCCCCNc4cccc5c4C(=O)N(C4CCC(=O)NC4=O)C5=O)cc(-c4ccn(C)n4)c3)cccc2nn1 (stereo not drawn) [dCE-2]
effect on proliferation of LNCaP cells (LNCaP cells): mild effect; also recorded: limited effect
